US10881110B2, “Herbicidal compositions comprising isoxazolo[5,4-b]pyridines” (BASF SE, priority 2014, dated 2021)
Read-outs that look alike come from different tables or passages of the source.

Experiments:
POLCO = test: greenhouse post-emergence herbicidal test; type: in vivo, Polygonum convolvulus; set-up: key to herbicidal activity against POLCO found: rating on a scale from 0 to 100; details: post emergence
Outline: (§1)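 Post-emergence greenhouse test: plants in loamy sand, sprayed at 1–15 cm height with aqueous spray liquor from 10% emulsion concentrates, kept at 10-25 °C or 20-35 °C by species. Damage scored 0–100 (100 = complete destruction), usually 20 days after treatment. Expected additive effect E from Colby: E=X+Y−(X·Y/100).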

KCHSC = test: greenhouse post-emergence herbicidal test; type: in vivo, Kochia scoparia; set-up: key to herbicidal activity against KCHSC found: rating on a scale from 0 to 100; details: post emergence
Outline: as §1

[1] = I.1 62.5 g/ha, B.103 15 g/ha a.i.
[2] = I.1 62.5 g/ha, B.167 62.5 g/ha a.i.
[3] = applied alone at 31.25 g/ha a.i.

O=C(O)c1cc(C2CC2)nc2onc(C3CC3)c12 [I.1]
herbicidal activity against POLCO found (POLCO; [1]): 40
herbicidal activity against POLCO found (POLCO; [2]): 40
herbicidal activity against POLCO found (POLCO; I.1 62.5 g/ha, B.167 125 g/ha a.i.): 40
herbicidal activity against POLCO found (POLCO; a.i. g/ha: I.1 15.6, B.190 62.5, 20 days after treatment): 30%
herbicidal activity against POLCO found (POLCO; a.i. g/ha: I.1 15.6, B.67 125, 20 days after treatment): 0%
herbicidal activity against POLCO found (POLCO; a.i. g/ha: I.1 20.8, B.67 62.5, 20 days after treatment): 30%
herbicidal activity against POLCO found (POLCO; a.i. g/ha: I.1 20.8, B.79 25, 20 days after treatment): 50%
herbicidal activity against POLCO found (POLCO; a.i. g/ha: I.1 31.25, B.190 62.5, 20 days after treatment): 50%
herbicidal activity against POLCO found (POLCO; a.i. g/ha: I.1 31.25, B.67 125, 20 days after treatment): 0%
herbicidal activity against POLCO found (POLCO; a.i. g/ha: I.1 31.25, bentazon Na 125, 20 days after treatment): 50%
herbicidal activity against POLCO found (POLCO; a.i. g/ha: I.1 62.5, B.67 62.5, 20 days after treatment): 65%
herbicidal activity against POLCO found (POLCO; a.i. g/ha: I.1 62.5, B.79 25, 20 days after treatment): 75%
herbicidal activity against POLCO found (POLCO; application rate a.i.: I.1 31.25 g/ha, B.100 (isoxaflutole) 12.5 g/ha, alone or as mixture (composition 1.100)): 70
herbicidal activity against POLCO found (POLCO; application rate a.i.: I.1 31.25 g/ha, B.139 (pyroxasulfone) 12.5 g/ha, alone or as mixture (composition 1.139)): 65
herbicidal activity against POLCO found (POLCO; application rate a.i.: I.1 31.25 g/ha, B.40 (imazethapyr) 7.5 g/ha, alone or as mixture (composition 1.40)): 20
herbicidal activity against POLCO found (POLCO; application rate a.i.: I.1 62.5 g/ha, B.107 (topramezone) 6 g/ha, alone or as mixture (composition 1.107)): 75
herbicidal activity against POLCO found (POLCO; application rate a.i.: I.1 62.5 g/ha, B.84 (paraquat-dichloride) 17.5 g/ha, alone or as mixture (composition 1.84)): 90
herbicidal activity against POLCO found (POLCO; [3]): 65
herbicidal activity against POLCO found (POLCO; applied alone at 62.5 g/ha a.i.): 90
herbicidal activity against POLCO found (POLCO; applied alone at 125 g/ha a.i.): 85
herbicidal activity against POLCO found (POLCO; g/ha a.i.: I.1 31.25, B.63 1, mixture 31.25+1): 30
herbicidal activity against POLCO found (POLCO; g/ha a.i.: I.1 125, B.63 0.5, mixture 125+0.5): 80
herbicidal activity against POLCO found (POLCO; g/ha a.i.: I.1 125, B.63 1, mixture 125+1): 80
pest or weed control at 31.25 g/ha (KCHSC; Bassia scoparia, post-emergence, 480 h, I.1 alone 31.25 g/ha a.i., read-out: herbicidal activity against KCHSC found): 70%
pest or weed control at 62.5 g/ha (KCHSC; Bassia scoparia, post-emergence, 480 h, I.1 alone 62.5 g/ha a.i., read-out: herbicidal activity against KCHSC found): 85%
pest or weed control at 31.25 g/ha (KCHSC; Bassia scoparia, post-emergence, 480 h, 31.25 g/ha a.i., read-out: herbicidal activity against KCHSC found): 75%
pest or weed control at 125 g/ha (KCHSC; Bassia scoparia, post-emergence, 480 h, I.1 125 g/ha a.i., read-out: herbicidal activity against KCHSC found): 95%
pest or weed control at 15.625 g/ha (KCHSC; Bassia scoparia, post-emergence, 480 h, single active, 15.625 g/ha a.i., read-out: herbicidal activity against KCHSC found): 0%
pest or weed control at 31.25 g/ha (KCHSC; Bassia scoparia, post-emergence, 480 h, single active, 31.25 g/ha a.i., read-out: herbicidal activity against KCHSC found): 30%
pest or weed control at 62.5 g/ha (KCHSC; Bassia scoparia, post-emergence, 480 h, single active, 62.5 g/ha a.i., read-out: herbicidal activity against KCHSC found): 70%
herbicidal activity against KCHSC found (KCHSC; 6 days after treatment, g/ha a.i.: I.1 31.25, B.96 35, mixture 31.25+35): 10
herbicidal activity against KCHSC found (KCHSC; 6 days after treatment, g/ha a.i.: I.1 31.25, B.96 70, mixture 31.25+70): 10
herbicidal activity against KCHSC found (KCHSC; 6 days after treatment, g/ha a.i.: I.1 31.25, B.96 140, mixture 31.25+140): 10
herbicidal activity against KCHSC found (KCHSC; 6 days after treatment, g/ha a.i.: I.1 31.25, naptalam 100, mixture 31.25+100): 10
herbicidal activity against KCHSC found (KCHSC; 6 days after treatment, g/ha a.i.: I.1 31.25, naptalam 200, mixture 31.25+200): 10
herbicidal activity against KCHSC found (KCHSC; 6 days after treatment, g/ha a.i.: I.1 62.5, B.96 35, mixture 62.5+35): 90
herbicidal activity against KCHSC found (KCHSC; 6 days after treatment, g/ha a.i.: I.1 62.5, B.96 70, mixture 62.5+70): 90
herbicidal activity against KCHSC found (KCHSC; I.1 15.62 g/ha, B.88 1 g/ha a.i.): 45
herbicidal activity against KCHSC found (KCHSC; I.1 31.25 g/ha, B.103 7.5 g/ha a.i.): 30
herbicidal activity against KCHSC found (KCHSC; I.1 31.25 g/ha, B.103 15 g/ha a.i.): 30
herbicidal activity against KCHSC found (KCHSC; I.1 31.25 g/ha, B.167 62.5 g/ha a.i.): 30
herbicidal activity against KCHSC found (KCHSC; I.1 31.25 g/ha, B.88 1 g/ha a.i.): 55
herbicidal activity against KCHSC found (KCHSC; I.1 62.5 g/ha, B.103 7.5 g/ha a.i.): 70
herbicidal activity against KCHSC found (KCHSC; [1]): 70
herbicidal activity against KCHSC found (KCHSC; [2]): 70
herbicidal activity against KCHSC found (KCHSC; I.1 62.5 g/ha, B.88 1 g/ha a.i.): 80
herbicidal activity against KCHSC found (KCHSC; [3]): 80
herbicidal activity against KCHSC found (KCHSC; applied alone at 125 g/ha a.i.): 95
herbicidal activity against KCHSC found (KCHSC; g/ha a.i.: I.1 31.25, B.24 1, mixture 31.25+1): 40
herbicidal activity against KCHSC found (KCHSC; g/ha a.i.: I.1 31.25, B.24 2, mixture 31.25+2): 40
